In ChEMBL document CHEMBL4627256, “N-(3,5-Dichloro-4-(2,4,6-trichlorophenoxy)phenyl)benzenesulfonamide: A new dual-target inhibitor of mitochondrial complex II and complex III via structural simplification” (Bioorg Med Chem, 2020):

Experiments:
[1] = Inhibition of porcine succinate-cytochrome c reductase using succinate and cytochrome c as substrates by spectrophotometric based assay; parameters: species or system Sus scrofa
[2] = species: Sus scrofa; assay: Inhibition of porcine heart succinate-cytochrome c reductase at 10 uM using succinate and cytochrome c as substrates by spectrophotometric based assay relative to control
[3] = Inhibition of porcine succinate-ubiquinone oxidoreductase using succinate and 2,6-dichloroindophenol as substrates by spectrophotometric based assay; parameters: species or system Sus scrofa
[4] = Inhibition of porcine cytochrome b-c1 complex using DBH2 and cytochrome c as substrates by spectrophotometric based assay; parameters: species or system Sus scrofa
[5] = species: Sus scrofa; assay: Inhibition of porcine cytochrome b-c1 complex at 10 uM using DBH2 and cytochrome c as substrates by spectrophotometric based assay relative to control
[6] = species: Sus scrofa; assay: Inhibition of porcine succinate-ubiquinone oxidoreductase at 10 uM using succinate and 2,6-dichloroindophenol as substrates by spectrophotometric based assay relative to control

| SMILES | IC50 [1] | other results |
| --- | --- | --- |
| O=S(=O)(Nc1cc(Cl)c(Oc2c(Cl)cc(Cl)cc2Cl)c(Cl)c1)c1ccc(F)cc1 | 830 nM | – |
| O=S(=O)(Nc1ccc(Oc2ccc(Cl)cc2Cl)cc1)c1c(Cl)cc(Cl)cc1Cl | 1490 nM | – |
| Cc1cc(C)c(Oc2c(C)cc(NS(=O)(=O)c3ccccc3)cc2C)c(C)c1 | > 10000 nM | inhibition [2]: 3% |
| O=S(=O)(Nc1cc(Cl)c(Oc2ncc(C(F)(F)F)cc2Cl)c(Cl)c1)c1ccccc1 | > 10000 nM | inhibition [2]: 9% |
| O=S(=O)(Nc1cc(Cl)c(Oc2ccc(Cl)cc2Cl)c(Cl)c1)c1ccc(Cl)cc1Cl | 1380 nM | – |
| O=S(=O)(Nc1cc(Cl)c(Oc2c(Cl)cc(Cl)cc2Cl)c(Cl)c1)c1ccc(C(F)(F)F)cc1 | 530 nM | – |
| O=S(=O)(Nc1cc(Cl)c(Oc2c(Cl)cc(Cl)cc2Cl)c(Cl)c1)c1ccc(Cl)cc1Cl | 1030 nM | – |
| O=S(=O)(Nc1cc(Cl)c(Oc2ccc(Cl)cc2Cl)c(Cl)c1)c1ccccc1 | 1100 nM | – |
| O=S(=O)(Nc1ccc(Oc2ccc(Cl)cc2Cl)c(Cl)c1)c1ccc(Cl)cc1Cl | 1300 nM | – |
| O=S(=O)(Nc1ccc(Oc2ccc(Cl)cc2Cl)c(Cl)c1)c1c(Cl)cc(Cl)cc1Cl | 1330 nM | – |
| COc1ccc(S(=O)(=O)Nc2cc(Cl)c(Oc3c(Cl)cc(Cl)cc3Cl)c(Cl)c2)cc1 | 1870 nM | – |
| O=S(=O)(Nc1ccc(Oc2ccccc2)cc1)c1ccccc1 | > 10000 nM | inhibition [2]: 32% |
| CN(C)S(=O)(=O)n1cnc(S(=O)(=O)Nc2cc(Cl)c(Oc3c(Cl)cc(Cl)cc3Cl)c(Cl)c2)n1 | 3200 nM | IC50 [3]: 500 nM; IC50 [4]: 35500 nM |
| Cc1ccccc1S(=O)(=O)Nc1cc(Cl)c(Oc2c(Cl)cc(Cl)cc2Cl)c(Cl)c1 | 800 nM | – |
| O=S(=O)(Nc1ccc(Oc2ccc(Cl)cc2Cl)cc1)c1ccccc1 | 9280 nM | – |
| O=[N+]([O-])c1ccc(S(=O)(=O)Nc2cc(Cl)c(Oc3c(Cl)cc(Cl)cc3Cl)c(Cl)c2)cc1 | 1580 nM | – |
| Cc1ccc(S(=O)(=O)Nc2cc(Cl)c(Oc3c(Cl)cc(Cl)cc3Cl)c(Cl)c2)cc1 | 1660 nM | – |
| Cc1cccc(S(=O)(=O)Nc2cc(Cl)c(Oc3c(Cl)cc(Cl)cc3Cl)c(Cl)c2)c1 | 380 nM | – |
| O=[N+]([O-])c1ccc(S(=O)(=O)Nc2cc(Cl)c(Oc3ccc(Cl)cc3Cl)c(Cl)c2)cc1 | 3570 nM | – |

| SMILES | IC50 [1] | other results |
| --- | --- | --- |
| O=S(=O)(Nc1cc(F)c(Oc2c(F)cc(F)cc2F)c(F)c1)c1ccccc1 | 6440 nM | inhibition [5]: 40%; IC50 [3]: 2020 nM |
| O=S(=O)(Nc1cc(Cl)c(Oc2c(Cl)cc(Cl)cc2Cl)c(Cl)c1)c1ccc(C(F)(F)F)cc1Cl | 1080 nM | – |
| O=S(=O)(Nc1cc(Cl)c(Oc2c(Cl)cc(Cl)cc2Cl)c(Cl)c1)c1c(Cl)cc(Cl)cc1Cl | 220 nM | – |
| O=S(=O)(Nc1ccc(Oc2ccc(Cl)cc2Cl)cc1)c1ccc(C(F)(F)F)cc1Cl | 1370 nM | – |
| O=S(=O)(Nc1cc(Cl)c(Oc2c(Cl)cc(Cl)cc2Cl)c(Cl)c1)c1ccccc1 | 80 nM | IC50 [3]: 510 nM; IC50 [4]: 3060 nM |
| O=S(=O)(Nc1ccc(Oc2ccc(Cl)cc2Cl)cc1)c1ccc(Cl)cc1Cl | 1620 nM | – |
| O=S(=O)(Nc1ccc(Oc2c(Cl)cc(Cl)cc2Cl)c(Cl)c1)c1ccccc1 | > 10000 nM | inhibition [2]: 47% |
| O=S(=O)(Nc1cc(Cl)c(Oc2c(Cl)cc(Cl)cc2Cl)c(Cl)c1)c1ccc(Cl)cc1 | 630 nM | – |
| O=[N+]([O-])c1ccc(S(=O)(=O)Nc2ccc(Oc3ccc(Cl)cc3Cl)cc2)cc1 | 4860 nM | – |
| O=[N+]([O-])c1ccc(S(=O)(=O)Nc2ccc(Oc3ccc(Cl)cc3Cl)c(Cl)c2)cc1 | 2240 nM | – |
| O=S(=O)(Nc1ccc(Oc2ccc3ccccc3c2)c(Cl)c1)c1ccccc1 | > 10000 nM | inhibition [2]: 47% |
| O=S(=O)(Nc1cc(Cl)c(Oc2ccc3ccccc3c2)c(Cl)c1)c1ccccc1 | > 10000 nM | inhibition [2]: 48% |
| O=S(=O)(Nc1cc(Cl)c(Oc2ccc(Cl)cc2Cl)c(Cl)c1)c1ccc(C(F)(F)F)cc1Cl | 1170 nM | – |
| CO/C=C(/C(=O)OC)c1ccccc1Oc1cc(Oc2ccccc2C#N)ncn1 [AZOXYSTROBIN] | 290 nM | inhibition [6]: 23%; IC50 [4]: 530 nM |
| O=S(=O)(Nc1cc(Cl)c(Oc2ccc(Cl)cc2Cl)c(Cl)c1)c1c(Cl)cc(Cl)cc1Cl | 1120 nM | – |
| CC(C)(C)c1ccc(S(=O)(=O)Nc2cc(Cl)c(Oc3c(Cl)cc(Cl)cc3Cl)c(Cl)c2)cc1 | 990 nM | – |
| O=S(=O)(Nc1ccc(Oc2ccc(Cl)cc2Cl)c(Cl)c1)c1ccccc1 | 1980 nM | – |
| O=S(=O)(Nc1ccc(Oc2ccc(Cl)cc2Cl)c(Cl)c1)c1ccc(C(F)(F)F)cc1Cl | 1080 nM | – |
| CC(C)CC(C)c1sccc1NC(=O)c1cn(C)nc1C(F)(F)F (centres undefined) [PENTHIOPYRAD] | 1320 nM | inhibition [5]: < 10%; IC50 [3]: 1190 nM |
